Reference: patent US20260188423A1, “IDENTIFICATION OF CELL SURFACE ANTIGENS WHICH INDUCE T-CELL RESPONSES AND THEIR USES” (priority 2022, published 2026)
Entries after “also recorded” stand apart in the source; their conditions may differ. Where no end group is shown, it is not given here.

Columns and labels:
[1] = system: Monocyte-derived dendritic cells; assay type: cell-based, human
[2] = system: HeLa cells; experiment: Cellular uptake of fluorescent-labeled peptide vaccines, fluorescent microscopy; assay type: cell-based, human
Description: Methods: In this experiment, the uptake of two fluorescent-labeled peptide vaccines was examined using a fluorescent microscope in cultured cells. HeLa cells were grown on cover slides for one day and then treated with peptide vaccines. Cells were fixed with 4% paraformaldehyde, washed with PBS, and analyzed with fluorescent microscopy.

[3] = system: peritoneal tumour biopsies; experiment: Transcriptome analysis of the Murcia patient's peritoneal tumour biopsies; details: target of 2nd generation personalized vaccines
Description: All the putative 8-20 amino acids long epitopes were created from these proteins and used for designing the 2nd generation of personalized vaccines according to the invention. […] These antigens have different length and amino acid sequences. All selected peptide antigen contains multiple highly ranked epitopes (13-66) presented on the cell surface by the patient's HLA class I and class II molecules. The range of the potency score is indicated for the selected epitopes. Epitopes presented by the patient's HLA class I and class II molecules are indicated to induce CD8 and CD4 responses, respectively. As described in the invention, the potency of each epitope in the vaccines was calculated and indicated to inform the physician about the predicted efficacy of the personalised vaccines in the recipient.

“Fluoresc-KSS-QYIKANSKFIGITE-RRRRRRRR-LNVPMVATV (fluorescein-KSSQYIKANSKFIGITERRRRRRRRLNVPMVATV)” was tested, and the “uptake in dendritic cells compared to the control vaccines” value [1] was “substantial increase in the uptake; also recorded: exceptional uptake”.

“Fluoresc-KSSQYIKANSKFIGITEAAALNVPMVATV-NH2 (fluorescein-KSSQYIKANSKFIGITEAAALNVPMVATV-NH2) [peptide vaccines (CD4-CD8), control peptide vaccine lacking the R8 component, reference compound]” was tested, and the cellular uptake ([2]; 120 minutes) was “poorly detectable cellular uptake”.

“Fluoresc-KSSQYIKANSKFIGITERRRRRRRRLNVPMVATV-NH2 (fluorescein-KSSQYIKANSKFIGITERRRRRRRRLNVPMVATV-NH2) [vaccine (CD4-R8-CD8)]” was tested, and the cellular uptake ([2]; 120 minutes) was “diffuse distribution throughout the cytoplasm and nucleus”, the “cellular uptake compared to the control vaccines” value ([2]; after 30 minutes and 120 minutes of incubation) was “substantial increase in the uptake” and the cellular uptake ([2]; within 30 minutes) was “rapid uptake into both the cytoplasm and nucleus”.

B1: ATAD2 (protein, UniProt Q6PL18 1-1390, looked up)
ATPase family AAA …: MVVLRSSLELHNHSAASATGSLDLSSDFLSLEHIGRRRLRSAGAAQKKPAATTAKAGDGSSVKEVETYHRTRALRSLRKDAQNSSDSSFEKNVEITEQLANGRHFTRQLARQQADKKKEEHREDKVIPVTRSLRARNIVQSTEHLHEDNGDVEVRRSCRIRSRYSGVNQSMLFDKLITNTAEAVLQKMDDMKKMRRQRMRELEDLGVFNETEESNLNMYTRGKQKDIQRTDEETTDNQEGSVESSEEGEDQEHEDDGEDEDDEDDDDDDDDDDDDDDEDDEDEEDGEEENQKRYYLRQRKATVYYQAPLEKPRHQRKPNIFYSGPASPARPRYRLSSAGPRSPYCKRMNRRRHAIHSSDSTSSSSSEDEQHFERRRKRSRNRAINRCLPLNFRKDELKGIYKDRMKIGASLADVDPMQLDSSVRFDSVGGLSNHIAALKEMVVFPLLYPEVFEKFKIQPPRGCLFYGPPGTGKTLVARALANECSQGDKRVAFFMRKGADCLSKWVGESERQLRLLFDQAYQMRPSIIFFDEIDGLAPVRSSRQDQIHSSIVSTLLALMDGLDSRGEIVVIGATNRLDSIDPALRRPGRFDREFLFSLPDKEARKEILKIHTRDWNPKPLDTFLEELAENCVGYCGADIKSICAEAALCALRRRYPQIYTTSEKLQLDLSSINISAKDFEVAMQKMIPASQRAVTSPGQALSTVVKPLLQNTVDKILEALQRVFPHAEFRTNKTLDSDISCPLLESDLAYSDDDVPSVYENGLSQKSSHKAKDNFNFLHLNRNACYQPMSFRPRILIVGEPGFGQGSHLAPAVIHALEKFTVYTLDIPVLFGVSTTSPEETCAQVIREAKRTAPSIVYVPHIHVWWEIVGPTLKATFTTLLQNIPSFAPVLLLATSDKPHSALPEEVQELFIRDYGEIFNVQLPDKEERTKFFEDLILKQAAKPPISKKKAVLQALEVLPVAPPPEPRSLTAEEVKRLEEQEEDTFRELRIFLRNVTHRLAIDKRFRVFTKPVDPDEVPDYVTVIKQPMDLSSVISKIDLHKYLTVKDYLRDIDLICSNALEYNPDRDPGDRLIRHRACALRDTAYAIIKEELDEDFEQLCEEIQESRKKRGCSSSKYAPSYYHVMPKQNSTLVGDKRSDPEQNEKLKTPSTPVACSTPAQLKRKIRKKSNWYLGTIKKRRKISQAKDDSQNAIDHKIESDTEETQDTSVDHNETGNTGESSVEENEKQQNASESKLELRNNSNTCNIENELEDSRKTTACTELRDKIACNGDASSSQIIHISDENEGKEMCVLRMTRARRSQVEQQQLITVEKALAILSQPTPSLVVDHERLKNLLKTVVKKSQNYNIFQLENLYAVISQCIYRHRKDHDKTSLIQKMEQEVENFSCSR
Work on B1 yielded a Relative expression [3] of 9.
